Legend:
[1] = tested on: CYP3A4; conditions: model input; cited from earlier work
[2] = cited from earlier work
[3] = biological target: T1, OATP1B1 (Homo sapiens, UniProt Q9Y6L6); assay: Determination of inhibition constant Ki for OATP1B1, rosuvastatin; assay type: cell-based; conditions: rosuvastatin 1-80 µM, 30 min preincubation, 2 min; read-out: Ki-value for the competitive inhibition of OATP1B1
T1 construct: expressed in transfected cells; host or cells: HEK293 (recombinant baculovirus-mediated transduction)
T1 sequence (Q9Y6L6 1-691): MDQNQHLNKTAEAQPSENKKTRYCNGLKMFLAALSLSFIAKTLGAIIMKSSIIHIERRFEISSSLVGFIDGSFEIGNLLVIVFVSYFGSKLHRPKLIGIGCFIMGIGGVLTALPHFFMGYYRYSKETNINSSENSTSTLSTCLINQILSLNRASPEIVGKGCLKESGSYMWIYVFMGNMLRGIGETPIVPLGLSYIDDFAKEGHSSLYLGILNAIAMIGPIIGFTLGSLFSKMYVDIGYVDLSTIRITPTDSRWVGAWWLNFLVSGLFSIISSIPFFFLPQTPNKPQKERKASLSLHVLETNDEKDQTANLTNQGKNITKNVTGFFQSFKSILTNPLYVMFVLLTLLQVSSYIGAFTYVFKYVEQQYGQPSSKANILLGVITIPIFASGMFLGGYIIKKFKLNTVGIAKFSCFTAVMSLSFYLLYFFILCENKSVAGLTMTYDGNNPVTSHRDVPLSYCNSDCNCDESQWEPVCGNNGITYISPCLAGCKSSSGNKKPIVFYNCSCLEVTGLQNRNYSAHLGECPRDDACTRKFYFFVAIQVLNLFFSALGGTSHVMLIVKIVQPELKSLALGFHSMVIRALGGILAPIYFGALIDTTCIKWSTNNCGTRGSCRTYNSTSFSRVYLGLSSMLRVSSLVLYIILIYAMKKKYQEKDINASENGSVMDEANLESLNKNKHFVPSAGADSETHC
Protocol: were removed and 300 µl of warm TP-buffer was added to each well and incubated for 5 min.
The washing was repeated twice , after which the transport assays were conducted in the presence of 1 µM 2′,7′ -dichlorofluorescein for 5 min. The wells that were pre -incubated with […]
incubated with the vehicle contained three different inhibitor concentrations. After the transport assays, the samples were treated and analyzed similarly as described in the main text and above. The uptake into vehicle control samples w as set to a value of 100% and all the inhibitor samples are presented relative to the vehicle control samples. […]
determined in a single experiment in triplicate samples by using 1 µM, 4 µM and 20 µM […]
µM, 2.5 µM, 10 µM, 20 µM, 40 µM and 80 µM). The assays included a 30 min preincubation step with the inhibitor , and the transport assays were conducted for 2 min . Further details are reported in the methods of the main text. The Ki value was calculated by fitting the com petitive inhibition model to the data with the nonlinear least squares method (nls) in R programming language environment (R version 4.3.1) :
Uptake refers to the rate of uptake in OATP1B1-expressing cells, after subtracting the uptake in control cells , Vmax is the maximum rate of transport, K m is the Michaelis constant, S is the […]
Efflux transport assays in HEK293 membrane vesicles […]

Cc1onc(-c2c(F)cccc2Cl)c1C(=O)N[C@@H]1C(=O)N2[C@@H]1SC(C)(C)[C@@H]2C(=O)O [Flucloxacillin]
CYP3A4 Indmax [1]: 4.6

Cc1onc(-c2c(Cl)cccc2Cl)c1C(=O)N[C@@H]1C(=O)N2[C@@H]1SC(C)(C)[C@@H]2C(=O)O [Dicloxacillin]
decrease of renal clearance by probenecid [2]: 4 fold | increase of C max and AUC by cyclosporine and probenecid [2]: < 2 fold | Ki [3]: 3.65 µM

— PMC12865225 (Clinical and Translational Science, 2026)
